Each molecule was assayed against T1, Kv7.2/7.3 (Homo sapiens, UniProt O43525+O43526) (assay: Kv7.2/7.3 Activation Assay (Thallium Flux Assay)). Conditions: hKV7.2/7.3 cell line; test compound at single concentration of 10 μM; fluorescence at 90 sec normalized to positive control (retigabine, 30 μM).
T1 construct: Kv7.2 tetracycline-induced, Kv7.3 constitutive
Format: cell-based
Summary of the method: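 Single-point activity at 10 μM (0.1% DMSO, HEPES-buffered saline, pH 7.4) was scored from fluorescence at 90 s relative to 30 μM retigabine. Categories were none <0.15, moderate 0.15-0.7 and high >0.7. Thallium influx after stimulus addition was followed with FluxOR II Green dye in hKv7.2/7.3 cells, Kv7.2 expressed under overnight tetracycline (10 ng/mL) induction.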

| SMILES | Kv7.2/7.3 Activity |
| --- | --- |
| Cn1nc(NC(=O)CC2CC(F)(F)C2)c(C2CCC2)c1-c1ccc(F)c(F)c1 [Compound 217, N-(4-cyclobutyl-5-(3,4-difluorophenyl)-1-methyl-1H-pyrazol-3-yl)-2-(3,3-difluorocyclobutyl)acetamide] | ++ (“++” High Activity ≥ 0.7) |
| Cn1nc(NC(=O)[C@@H]2C[C@H]2F)c(C2CCC2)c1-c1ccc(F)cc1 [Compound 219, (1S,2R)-N-(4-cyclobutyl-5-(4-fluorophenyl)-1-methyl-1H-pyrazol-3-yl)-2-fluorocyclopropane-1-carboxamide] | − (“−” No Activity < 0.15) |
| Cn1nc(NC(=O)C2CC(F)(F)C2)c(C2CCC2)c1-c1ccc(Cl)cc1 [Compound 220, N-(5-(4-chlorophenyl)-4-cyclobutyl-1-methyl-1H-pyrazol-3-yl)-3,3-difluorocyclobutane-1-carboxamide] | ++ (“++” High Activity ≥ 0.7) |
| Cn1nc(NC(=O)C2(C)CC(F)(F)C2)c(C2CCC2)c1-c1ccc(Cl)cc1 [Compound 221, N-(5-(4-chlorophenyl)-4-cyclobutyl-1-methyl-1H-pyrazol-3-yl)-3,3-difluoro-1-methylcyclobutane-1-carboxamide] | + (“+” Moderate Activity 0.15-0.7) |
| Cn1nc(NC(=O)[C@@H]2CC2(F)F)c(C2CCC2)c1-c1ccc(Cl)cc1 [Compound 223, (S)-N-(5-(4-chlorophenyl)-4-cyclobutyl-1-methyl-1H-pyrazol-3-yl)-2,2-difluorocyclopropane-1-carboxamide] | + (“+” Moderate Activity 0.15-0.7) |
| Cc1nnsc1-c1c(C2CCC2)c(NC(=O)C2CC(F)(F)C2)nn1C [Compound 225, N-(4-cyclobutyl-1-methyl-5-(4-methyl-1,2,3-thiadiazol-5-yl)-1H-pyrazol-3-yl)-3,3-difluorocyclobutane-1-carboxamide] | + (“+” Moderate Activity 0.15-0.7) |
| Cn1nc(NC(=O)C2COC2)c(C2CCC2)c1-c1ccc(F)cc1 [Compound 227, N-(4-cyclobutyl-5-(4-fluorophenyl)-1-methyl-1H-pyrazol-3-yl)oxetane-3-carboxamide] | − (“−” No Activity < 0.15) |
| Cn1nc(NC(=O)C2CS(=O)(=O)C2)c(C2CCC2)c1-c1ccc(F)cc1 [Compound 228, N-(4-cyclobutyl-5-(4-fluorophenyl)-1-methyl-1H-pyrazol-3-yl)thietane-3-carboxamide 1,1-dioxide] | − (“−” No Activity < 0.15) |
| Cn1nc(NC(=O)C[C@@H]2CC(F)(F)C2(F)F)c(C2CCC2)c1-c1ccc(F)c(F)c1 [Compound 235, (R)-N-(4-cyclobutyl-5-(3,4-difluorophenyl)-1-methyl-1H-pyrazol-3-yl)-2-(2,2,3,3-tetrafluorocyclobutyl)acetamide] | ++ (“++” High Activity ≥ 0.7) |
| Cn1nc(NC(=O)C[C@H]2CC(F)(F)C2(F)F)c(C2CCC2)c1-c1ccc(F)c(F)c1 [Compound 236, (S)-N-(4-cyclobutyl-5-(3,4-difluorophenyl)-1-methyl-1H-pyrazol-3-yl)-2-(2,2,3,3-tetrafluorocyclobutyl)acetamide] | ++ (“++” High Activity ≥ 0.7) |
| Cn1nc(NC(=O)N[C@H]2CCC(F)(F)C2)c(C2CCC2)c1-c1ccc(F)cc1 [Compound 237, (S)-1-(4-cyclobutyl-5-(4-fluorophenyl)-1-methyl-1H-pyrazol-3-yl)-3-(3,3-difluorocyclopentyl)urea] | + (“+” Moderate Activity 0.15-0.7) |
| Cn1nc(NC(=O)N[C@@H]2CCC(F)(F)C2)c(C2CCC2)c1-c1ccc(F)cc1 [Compound 238, (R)-1-(4-cyclobutyl-5-(4-fluorophenyl)-1-methyl-1H-pyrazol-3-yl)-3-(3,3-difluorocyclopentyl)urea] | + (“+” Moderate Activity 0.15-0.7) |
| Cc1nnc(-c2c(C3CCC3)c(NC(=O)CC3CC(F)(F)C3)nn2C)s1 [Compound 239, N-(4-cyclobutyl-1-methyl-5-(5-methyl-1,3,4-thiadiazol-2-yl)-1H-pyrazol-3-yl)-2-(3,3-difluorocyclobutyl)acetamide] | − (“−” No Activity < 0.15) |
| Cn1nc(NC(=O)OC2CC(F)(F)C2)c(C2CCC2)c1-c1ccc(F)cc1 [Compound 241, 3,3-difluorocyclobutyl (4-cyclobutyl-5-(4-fluorophenyl)-1-methyl-1H-pyrazol-3-yl)carbamate] | ++ (“++” High Activity ≥ 0.7) |
| Cn1nc(NC(=O)NCC2CC(F)(F)C2)c(C2CCC2)c1-c1ccc(F)cc1 [Compound 242, 1-(4-cyclobutyl-5-(4-fluorophenyl)-1-methyl-1H-pyrazol-3-yl)-3-((3,3-difluorocyclobutyl)methyl)urea] | + (“+” Moderate Activity 0.15-0.7) |
| Cn1nc(NC(=O)OCC2CC(F)(F)C2)c(C2CCC2)c1-c1ccc(F)cc1 [Compound 243, (3,3-difluorocyclobutyl)methyl (4-cyclobutyl-5-(4-fluorophenyl)-1-methyl-1H-pyrazol-3-yl)carbamate] | ++ (“++” High Activity ≥ 0.7) |
| Cn1nc(NC(=O)NC2CC3(C2)CC(F)(F)C3)c(C2CCC2)c1-c1ccc(F)cc1 [Compound 244, 1-(4-cyclobutyl-5-(4-fluorophenyl)-1-methyl-1H-pyrazol-3-yl)-3-(6,6-difluorospiro[3.3]heptan-2-yl)urea] | − (“−” No Activity < 0.15) |
| Cn1nc(NC(=O)NC(C)(C)C)c(C2CCC2)c1-c1ccc(F)cc1 [Compound 245, 1-(tert-butyl)-3-(4-cyclobutyl-5-(4-fluorophenyl)-1-methyl-1H-pyrazol-3-yl)urea] | + (“+” Moderate Activity 0.15-0.7) |

Second part, the molecule after the results:

| Kv7.2/7.3 Activity | SMILES |
| --- | --- |
| ++ (“++” High Activity ≥ 0.7) | Cn1nc(NC(=O)CC2CC(F)(F)C2)c(C2CCC2)c1-c1ccc(Cl)s1 [Compound 218, N-(5-(5-chlorothiophen-2-yl)-4-cyclobutyl-1-methyl-1H-pyrazol-3-yl)-2-(3,3-difluorocyclobutyl)acetamide] |
| ++ (“++” High Activity ≥ 0.7) | Cn1nc(NC(=O)CC2CC(F)(F)C2)c(C2CCC2)c1-c1ccc(Cl)cc1 [Compound 222, N-(5-(4-chlorophenyl)-4-cyclobutyl-1-methyl-1H-pyrazol-3-yl)-2-(3,3-difluorocyclobutyl)acetamide] |
| − (“−” No Activity < 0.15) | Cn1nc(NC(=O)[C@H]2CC2(F)F)c(C2CCC2)c1-c1ccc(Cl)cc1 [Compound 224, (R)-N-(5-(4-chlorophenyl)-4-cyclobutyl-1-methyl-1H-pyrazol-3-yl)-2,2-difluorocyclopropane-1-carboxamide] |
| ++ (“++” High Activity ≥ 0.7) | Cn1nc(NC(=O)OC2CC(F)(F)C2)c(C2CCC2)c1-c1ccc(Cl)s1 [Compound 226, 3,3-difluorocyclobutyl (5-(5-chlorothiophen-2-yl)-4-cyclobutyl-1-methyl-1H-pyrazol-3-yl)carbamate] |
| ++ (“++” High Activity ≥ 0.7) | O=C(Nc1nn(CCO)c(-c2ccc(Cl)s2)c1C1CCC1)C1CC(F)(F)C1 [Compound 229, N-(5-(5-chlorothiophen-2-yl)-4-cyclobutyl-1-(2-hydroxyethyl)-1H-pyrazol-3-yl)-3,3-difluorocyclobutane-1-carboxamide] |
| ++ (“++” High Activity ≥ 0.7) | Cn1nc(NC(=O)C[C@@H]2CC(F)(F)C2(F)F)c(C2CCC2)c1-c1ccc(Cl)s1 [Compound 230, (R)-N-(5-(5-chlorothiophen-2-yl)-4-cyclobutyl-1-methyl-1H-pyrazol-3-yl)-2-(2,2,3,3-tetrafluorocyclobutyl)acetamide] |
| ++ (“++” High Activity ≥ 0.7) | Cn1nc(NC(=O)C[C@H]2CC(F)(F)C2(F)F)c(C2CCC2)c1-c1ccc(Cl)s1 [Compound 231, (S)-N-(5-(5-chlorothiophen-2-yl)-4-cyclobutyl-1-methyl-1H-pyrazol-3-yl)-2-(2,2,3,3-tetrafluorocyclobutyl)acetamide] |
| ++ (“++” High Activity ≥ 0.7) | Cn1nc(NC(=O)C23CC(C(F)(F)F)(C2)C3)c(C2CCC2)c1-c1ccc(Cl)s1 [Compound 232, N-(5-(5-chlorothiophen-2-yl)-4-cyclobutyl-1-methyl-1H-pyrazol-3-yl)-3-(trifluoromethyl)bicyclo[1.1.1]pentane-1-carboxamide] |
| ++ (“++” High Activity ≥ 0.7) | CO[C@@H](CC(=O)Nc1nn(C)c(-c2ccc(Cl)s2)c1C1CCC1)C(F)(F)F [Compound 233, (S)-N-(5-(5-chlorothiophen-2-yl)-4-cyclobutyl-1-methyl-1H-pyrazol-3-yl)-4,4,4-trifluoro-3-methoxybutanamide] |
| ++ (“++” High Activity ≥ 0.7) | C[C@@H](C(=O)Nc1nn(C)c(-c2ccc(Cl)s2)c1C1CCC1)C1(C(F)(F)F)CC1 [Compound 234, (R)-N-(5-(5-chlorothiophen-2-yl)-4-cyclobutyl-1-methyl-1H-pyrazol-3-yl)-2-(1-(trifluoromethyl)cyclopropyl)propanamide] |
| + (“+” Moderate Activity 0.15-0.7) | Cn1nc(NC(=O)NCC(F)(F)F)c(C2CCC2)c1-c1ccc(F)cc1 [Compound 240, 1-(4-cyclobutyl-5-(4-fluorophenyl)-1-methyl-1H-pyrazol-3-yl)-3-(2,2,2-trifluoroethyl)urea] |
| − (“−” No Activity < 0.15) | COCCNC(=O)Nc1nn(C)c(-c2ccc(F)cc2)c1C1CCC1 [Compound 246, 1-(4-cyclobutyl-5-(4-fluorophenyl)-1-methyl-1H-pyrazol-3-yl)-3-(2-methoxyethyl)urea] |
| − (“−” No Activity < 0.15) | Cn1nc(NC(=O)C2CC(F)(F)C2)c(C2CCC2)c1-c1ccc(C(C)(C)O)s1 [Compound 247, N-(4-cyclobutyl-5-(5-(2-hydroxypropan-2-yl)thiophen-2-yl)-1-methyl-1H-pyrazol-3-yl)-3,3-difluorocyclobutane-1-carboxamide] |
